According to patent publication US20060188909A1, “Business methods for assessing nucleic acids” (Medical College of Ohio, priority 2005, published 2006):

Legend:
[1] = test system: cytochrome p450 IA1 (CYPIAI) gene expression; test: Northern analysis of CYPIAI induction in BEP2D cells; type: cell-based, human; settings: 10 μM, varying times, vs 0.1% DMSO control
Experimental: (§1) In a second set of experiments, multiplex competitive reverse transcriptase polymerase chain reaction (MC RT-PCR) with competitive templates were prepared by the Celi method to evaluate the cytochrome p450 (CYP) IAI gene in β-napthoflavone-exposed BEP2D cells. The induction of CYPIAI gene expression was evaluated using both MC RT-PCR with Celi competitive templates, and Northern analysis. Competitive templates were prepared for both the CYPIAI and GAPDH genes. The primers used to prepare the competitive template for GAPDH were: […]
RNA from BEP2D cells incubated for varying times with […] (10 μM) was either electrophoresed on a 1% LE formaldehyde denaturing gel for Northern analysis or MC RT-PCR amplified, as described above. For Northern analysis, following transfer of the RNA to GeneScreen, the filters were hybridized with ^32P-labeled CYPIAI cDNA.
FIG. 36A illustrates Northern analysis of RNA obtained from BEP2D cells that were treated with 0.1% DMSO as a control, or, β-napthoflavone in an effort to induce cytochrome p450 IA1 (CYPIAI). FIG. 36B illustrates DNA PCR-amplified from serial dilutions of cDNA from the same cells used in FIG. 36SA. The cDNA was co-amplified in the presence of competitive templates for GAPDH and CYPIAI, according to some embodiments of the instant invention.

[2] = test system: cytochrome p450 IA1 (CYPIAI) gene expression; test: MC RT-PCR with Celi competitive templates, CYPIAI induction in BEP2D cells; type: cell-based, human; settings: 10 μM, exposed vs control cells, about the same cDNA loaded
Experimental: as §1
The PCR amplification conditions were the same as described for experiments using the competitive templates prepared for GAPDH and GSHPx by the Higuchi method except the annealing temperature was 55 degrees centigrade and the amplification was carried out for 38 cycles.
Because the native and competitive templates separate without prior restriction endonuclease digestion, samples were taken directly from the PCR reaction tube and applied to ethidium bromide stained 3% Nusieve, 1% LE agarose gels. It was then possible to quantify the products by taking a negative photograph of the gel using Polaroid 665 positive/negative instant film, subjecting the negative photograph to densitometry. […]

gene expression of the CYPIAI gene (Northern analysis) [1]: increase
band representing the native CYPIAI gene (MC RT-PCR, GAPDH reference) [2]: much more strongly represented
Compound: O=c1cc(-c2ccccc2)oc2ccc3ccccc3c12 [β-napthoflavone]
